In patent publication US4526890A, “3,6,7,8-Substituted-s-triazolo[4,3-b]pyridazines as bronchodilators” (The Dow Chemical Company, priority 1981, dated 1985):
Where a name gives a salt, the structure may show the parent alone.

Key:
[1] = Audiogenic convulsive side effects (sound challenge: tonic convulsions and fatalities); conditions: mouse, ip
Protocol: (§1) The interaction of sound with the convulsive threshold of drugs is a known phenomenon which can be used to evaluate such side effects. […] In a procedure for pharmacological evaluation, the lowering of the convulsive threshold, or the lowering of the LD50, by sound can be studied in mice.
(§2) In the test operations, mice are administered a test compound by intraperitoneal injection at various dosages, and the number of mice showing tonic convulsions and the number of fatalities occurring within 30 minutes is recorded.
The sound exposure is carried out by placing the mice in a sound insulated cage with a bell which emits 120 decibels of sound, and activating the bell for two minutes. The number of tonic convulsions and fatalities are then recorded to determine the ED50 and LD50 in the presence of the sound challenge.

[2] = test system: histamine-induced bronchoconstriction; test: Bronchodilator activity in the Konzett-Rossler guinea pig preparation (histamine-induced bronchoconstriction); assay type: in vivo; parameters: key to Histamine Blockade: % blockade = 100 − (post-dose response / mean of 3 prior) × 100; conditions: for Histamine Blockade: table 7, intravenous, 3 mg/kg except as otherwise indicated, aminophylline 10 mg/kg; for percent blockade of histamine / percent of aminophylline activity: 3 mg/kg intravenously; for percent blockade of histamine: 2 minutes prior to histamine; for percent of aminophylline activity: aminophylline 10 mg/kg for comparison, histamine agonist
Protocol: Bronchodilator activity of representative triazolopyridazine compounds of the invention is examined in the Konzett-Rossler quinea pig preparation according to accepted procedures. See Knozett and Rossler; Arch. f. Exp. Path. u. Pharmakol. […] Int. Pharmacodyn. […] In this procedure an anesthetized guinea pig is artificially respired with a fixed volume of air. The volume of air is selected to slightly exceed the capacity of the guinea pig's lungs, and the excess air or "overflow" is measured. Test compounds are evaluated by administering a test compound intravenously 2 minutes prior to administration of an agonist compound (histamine, serotonin or acetylcholine) following 3 previous agonist doses resulting in relatively uniform (±10 percent) bronchoconstriction. […] This is calculated by dividing the "overflow" agonist response measured after administration of the test compound by the average of the 3 preceding agonist responses, multiplying by 100 and subtracting this value from 100 percent.

[3] = 30 minute LD50 (acute toxicity without sound); conditions: mouse, in vivo, ip
Protocol: as §1, §2

histamine aerosol = test: Histamine aerosol exposure (collapse time); assay type: in vivo, guinea pigs; conditions: challenged two hours after intraperitoneal injection, collapse time > mean + two SD of controls; for ED50: Cavia porcellus, ip, 2 h
Protocol: In another procedure, test compounds were administered to guinea pigs by intraperitoneal injection and the guinea pigs were challenged two hours later by exposure to a histamine aerosol. Untreated animals collapse when exposed to the histamine aerosol. […] The ED50 's of representative compounds are set out in the following table.

mice = conditions: U.S. Pat. No. 4,136,182; in words; cited from earlier work

Row | SMILES | LD50 ([1]; in vivo) [mg/kg] | TD50 [1] [mg/kg] | Histamine Blockade [2] | LD50 at 0.5 h [3] [mg/kg] | ED50 (histamine aerosol) [mg/kg] | further results
1 | c1nnc2c3c(c(N4CCCCC4)nn12)CCCC3 [Example 25, 6-piperidino-7,8-tetramethylene-s-triazolo[4,3-b]pyridazine] | 298 | 283 | 72 | 298 | – | –
2 | c1nnc2c3c(c(N4CCCC4)nn12)CCCC3 [Example 24, 6-(1-pyrrolidinyl)-7,8,9,10-tetrahydro(1,2,4)triazolo[3,4-a]phthalazine] | 170 | 150 | 86 | 191 | – | percent blockade of histamine [2]: 100%; percent of aminophylline activity [2]: 105%
3 | Cc1c(N2CCCC2)nn2cnnc2c1C [7,8-Dimethyl-6-pyrrolidino-s-triazolo[4,3-b]pyridazine] | 277 | – | 62 | 277 | – | TD50 ([1]; in vivo): 277 mg/kg; percent blockade of histamine [2]: 65%; percent of aminophylline activity [2]: 67%
4 | CNc1nn2cnnc2c2c1CCCC2 [Example 31] | – | – | – | – | 4 | –
5 | Cc1nnc2c3c(c(N4CCCN(C)CC4)nn12)CCCC3 [44 (dihydrochloride)] | – | – | – | – | 23.8 | –
6 | Cc1cc2nncn2nc1N1CCOCC1 [7-Methyl-6-morpholino-s-triazolo[4,3-b]pyridazine] | 280 | 45 | – | 327 | – | bronchodilator activity ([2]; in words): desirable bronchodilator activity
7 | CN1CCN(c2nn3cnnc3c3c2CCCC3)CC1 [Example 27, 6-(4-methyl-1-piperazinyl)-7,8-tetramethylene(1,2,4)triazolo[4,3-b]pyridazine] | 134 | 134 | 91 | 147 | – | –
8 | CCc1nnc2c3c(c(N4CCCN(C)CC4)nn12)CCCC3 [Example 46] | – | – | – | – | – | ED50 (histamine aerosol exposure) (histamine aerosol; 120 min): < 5 mg/kg i.p.
9 | Cc1c(N2CCCCC2)nn2c(C)nnc2c1C [R7 Methyl; R3 CH3; R8 CH3; R6 Piperidino, 6-Piperidino-3,7,8-trimethyl-s-triazolo[4,3-b]pyridazine] | 141 | – | 30 | 141 | – | TD50 ([1]; in vivo): 141 mg/kg
10 | Cc1nnc2c3c(c(N(C)C)nn12)CCCC3 [Example 39] | – | – | – | – | 2.2 | –
11 | Cc1nnc2c3c(c(N4CCCCC4)nn12)CCCC3 [6-Piperidino-3-methyl-7,8-tetramethylene-s-triazolo[4,3-b]pyridazine] | 139 | 125 | 38 | 139 | – | –
12 | Cc1nnc2c3c(c(N4CCN(C)CC4)nn12)C1CCC3C1 (stereo not drawn) [Example 13] | 147 | – | 97 | 147 | – | TD50 ([1]; in vivo): 147 mg/kg
13 | O=C1C[C@@H]2OCC=C3CN4CC[C@]56c7ccccc7N1[C@H]5[C@H]2[C@H]3C[C@H]46 [strychnine] | – | – | – | – | – | change in toxicity with sound (mice): no significant change in toxicity with sound
14 | Cc1c(N2CCCCC2)nn2cnnc2c1C [R7 Methyl; R3 H; R8 CH3; R6 Piperidino, 6-Piperidino-7,8-dimethyl-s-triazolo[4,3-b]pyridazine] | 404 | – | 45 | 404 | – | TD50 ([1]; in vivo): 404 mg/kg
15 | c1nnc2c3c(c(N4CCCCCC4)nn12)CCCC3 [Example 29, 6-(hexahydro-1H-azepin-1-yl)-7,8-tetramethylene(1,2,4)triazolo[4,3-b]pyridazine] | – | – | – | – | 5 | –
16 | Cc1nnc2c3c(c(N4CCCC4)nn12)C1CCC3C1 (stereo not drawn) [Example 10] | 85 | 85 | 95 | 85 | – | –
17 | CCc1nnc2c3c(c(N4CCCC4)nn12)CCCC3 [Example 51] | – | – | – | – | < 2.5 | –
18 | c1nnc2c3c(c(N4CCOCC4)nn12)CCCC3 [6-Morpholino-7,8-tetramethylene-s-triazolo[4,3-b]pyridazine] | – | – | – | – | – | selectivity ratio ([1]; in vivo): 3.8; percent blockade of histamine [2]: 75%; percent of aminophylline activity [2]: 113%
19 | Cc1nnc2c3c(c(N4CCOCC4)nn12)C1CCC3C1 (stereo not drawn) [Example 6, 7,8,9,10-tetrahydro-3-methyl-6-(4-morpholinyl)-7,10-methano(1,2,4)triazolo[3,4-a]phthalazine] | 74 | 61 | 76 | 86 | – | –
20 | CCc1nnc2c3c(c(N4CCCCCC4)nn12)CCCC3 [Example 47] | – | – | – | – | ~4.95 | –
21 | CC1CCCN(c2nn3cnnc3c3c2CCCC3)C1 (stereo not drawn) [Example 33] | – | – | – | – | 1.8 | –
